This note sets out measurements from PMC11198769, “Enhancement of transcription efficiency by TAR-Tat system increases the functional expression of human olfactory receptors” (PLOS ONE, 2024).

SMILES strings stand for the structures. pEC50: −log10 of the molar value. Where two headings read alike, the source gives them in different places.

One experiment concerns the target T1, OR1A1 (Homo sapiens, UniProt Q9P1Q5).
T1 construct: Lucy tag (N); FLAG (N); Rho tag (N); expressed in transfected cells; host or cells: Flp-In T-REx-293 cells stably expressing RTP1S, Gαolf and Ric8-b
T1 sequence (Q9P1Q5 1-309): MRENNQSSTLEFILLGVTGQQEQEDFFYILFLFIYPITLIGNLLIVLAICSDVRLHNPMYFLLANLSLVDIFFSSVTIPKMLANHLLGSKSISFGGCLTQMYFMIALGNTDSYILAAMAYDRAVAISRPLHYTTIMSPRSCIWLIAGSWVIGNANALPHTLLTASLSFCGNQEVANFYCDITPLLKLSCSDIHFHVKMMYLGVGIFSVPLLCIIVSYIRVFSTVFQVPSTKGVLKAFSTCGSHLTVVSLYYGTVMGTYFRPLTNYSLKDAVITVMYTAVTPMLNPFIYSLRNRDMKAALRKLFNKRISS
The experiment is described as follows: hOR assay (GloSensor cAMP luciferase), dose-response. Conditions: for pEC50: read-out: EC50 value; for top value of OR1A1 dose-response curve: luminescence normalized to a maximum value of 100. It counts as cell-based. Here is the method: (§1) Flp-In T-REx-293 cells stably expressing accessory proteins (RTP1S, Gαolf, and Ric8-b) were established using the Flp-In T-REx system. Accessory proteins-expressing cells were maintained in high-glucose Dulbecco’s modified Eagle medium (Sigma-Aldrich) containing 10% fetal bovine serum (Biowest) and 1% antibiotic–antimycotic (Nacalai tesque) at 37°C with 5% CO2.
(§2) The GloSensor™ Technology (Promega) was used for the luciferase assay of the hOR response. As the negative control, cells that were transfected by the pBApo-CMV neo vector and pHEK293 Ultra Expression Vector I were used as mock cells. hOR/pHEK and hOR/pBApo (50 ng/well) were transfected into the accessory proteins-expressing cell line (40000 cells/well) using Lipofectamine 2000 (Thermo Fisher Scientific) (400 nL/well) along with pGlosensor™-22F cAMP biosensor plasmid (Promega) (50 ng/well) in a 96-well plate. At 28 h posttransfection, the cells were washed with an assay buffer (140 mM NaCl, 10 mM HEPES, 5 mM KCl, 1 mM CaCl2・2H2O, 10 mM D-glucose, pH 7.5) and replaced with the assay buffer (50 μL/well) containing 2% GloSensor cAMP substrate and preincubated for 1 h at 25°C. Then, the assay buffer was added (130 μL/well). After 10 min of equilibration, the luminescence was measured (L0). Odorants diluted in 10% DMSO/assay buffer were treated (20 μL/well). After 9 min, the luminescence was measured (L9min). First, all the L9min values were subtracted by the L0 value (ΔL) and divided by the L0 value (ΔL/L0). The concentration range of the odorants was different for each odorant, but the minimum was 0.01 μM and the maximum was 3 mM. For all hORs, luciferase assays with hOR/pBApo and hOR/pHEK were conducted in the same 96-well plate each time, and luminescence was normalized to a maximum value of 100. Dose–response curve images were graphed using the Graph Pad Prism 9 software (Graph Pad Software).

The next experiment concerns the target T2, OR2M3 (Homo sapiens, UniProt Q8NG83).
T2 construct: Lucy tag (N); expressed in transfected cells; host or cells: Flp-In T-REx-293 cells stably expressing RTP1S, Gαolf and Ric8-b
T2 sequence (Q8NG83 1-312): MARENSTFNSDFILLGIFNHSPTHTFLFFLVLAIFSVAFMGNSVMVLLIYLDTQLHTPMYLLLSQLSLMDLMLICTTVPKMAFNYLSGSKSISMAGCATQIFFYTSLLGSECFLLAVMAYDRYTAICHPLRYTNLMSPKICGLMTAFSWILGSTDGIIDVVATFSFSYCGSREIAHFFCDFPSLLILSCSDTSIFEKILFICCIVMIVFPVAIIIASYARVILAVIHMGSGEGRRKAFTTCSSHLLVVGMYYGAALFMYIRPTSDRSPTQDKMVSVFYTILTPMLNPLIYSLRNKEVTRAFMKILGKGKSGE
The description is as above. Format: cell-based. Conditions: OR2M3/pHEK plasmid. The protocol:
as §1, §2

In the case of `C=C(C)[C@H]1CC=C(C)C(=O)C1` [(+)-carvone], the “response of HiBiT-tagged OR1A1” value on OR1A1 (OR1A1 with the HiBiT tag (S1 Fig)) is recorded as “a dose-dependent response was detected”. In addition, the pEC50 (in general, the EC50 on a negative log10 scale, so that one unit is a factor of ten) is 6.04 on OR1A1 (OR1A1 with the TAR-Tat system (OR1A1/pHEK)) and 5.36 at OR1A1 (OR1A1 without the TAR-Tat system (OR1A1/pBApo)). Further, the “top value of OR1A1 dose-response curve” value at OR1A1 (with the TAR-Tat system (OR1A1/pHEK)) is on record as 90.4; at OR1A1 (without the TAR-Tat system (OR1A1/pBApo)), 53.9.
Consider `CCC(S)C(C)CO` (stereo not drawn) [3-mercapto-2-methyl-1-pentanol], for which the pEC50 on OR2M3 was 6.80.
